Data on one molecule can be found in patent publication US4473578A, “β-Lactam antibiotics and their use” (Beecham Group Limited, priority 1979, dated 1984).

Common to all, as to assay: Antibacterial effectiveness in agar
What all share (format): cell-based

Experiment [1] has as its system Bacteroides fragilis BC16. The conditions noted are these: in agar; Bacteroides fragilis BC16; read-out: M.I.C. An excerpt: (§1) b. Antibacterial effectiveness of the compound of […]
The test system of a further experiment is Bacteroides fragilis WS1. The conditions noted are these: in agar; Bacteroides fragilis WS1; read-out: M.I.C.
Excerpt: as §1

Another experiment has as its system Citrobacter freundii W18. The settings on record: in agar; Citrobacter freundii W18; read-out: M.I.C.
Excerpt: as §1

The subject of experiment [2] is Enterbacter aerogenes T660. The conditions noted are these: in agar; Enterbacter aerogenes T660; read-out: M.I.C.
Excerpt: as §1

The subject of experiment [3] is Enterobacter cloacea T749. The settings on record: in agar; Enterobacter cloacea T749; read-out: M.I.C.
Excerpt: as §1

The test system of another experiment is Escherichia coli 5. The settings on record: in agar; Escherichia coli 5; read-out: M.I.C.
Excerpt: as §1

A further experiment concerns Escherichia coli JT20R+.
Excerpt: as §1

In experiment [4] the test system is Klebsiella aerogenes R112. The conditions noted are these: in agar; Klebsiella aerogenes R112; read-out: M.I.C.
Excerpt: as §1

For experiment [5], the system named is Proteus vulgaris NCTC 4395. The conditions noted are these: NCTC4395; in agar; Proteus vulgaris NCTC 4395; read-out: M.I.C.
Excerpt: as §1

Another experiment relates to Proteus vulgaris X. The settings on record: in agar; Proteus vulgaris X; read-out: M.I.C.
Excerpt: as §1

The test system of experiment [6] is Serratia marcescens Wo146. The settings on record: in agar; Serratia marcescens Wo146; read-out: M.I.C.
Excerpt: as §1

In experiment [7] the test system is Staphylococcus aureus Smith. The settings on record: in agar; Staphylococcus aureus Smith; read-out: M.I.C.
Excerpt: as §1

In brackets after ≈: the same amount, converted by molar mass.

`CC(=O)N/C=C/SC1=C(C(=O)O)N2C(=O)[C@@H]([C@H](C)OS(=O)(=O)O)[C@H]2C1` [MM 13902, reference compound]: the MIC in experiment [1] is 1.6 µg/mL (≈ 4.08 µM); with Bacteroides fragilis WS1, 6.2 µg/mL (≈ 15.8 µM); with Citrobacter freundii W18 it was 6.2 µg/mL (≈ 15.8 µM); in experiment [2], 0.4 µg/mL (≈ 1.02 µM); in experiment [3] it was 12.5 µg/mL (≈ 31.9 µM); with Escherichia coli 5 it was at most 0.1 µg/mL. The MIC against Escherichia coli JT20R+ came to 1.6 µg/mL (≈ 4.08 µM); in experiment [4] it was 0.2 µg/mL (≈ 0.51 µM); in experiment [5], 0.1 µg/mL (≈ 0.255 µM); with Proteus vulgaris X, 0.4 µg/mL (≈ 1.02 µM); in experiment [6], 3.1 µg/mL (≈ 7.9 µM); in experiment [7] it was 1.6 µg/mL (≈ 4.08 µM).
